According to patent publication US4389398A, “Amino glycoside antibiotics having antiprotozoal and anthelmintic activity” (priority 1978, dated 1983):
≈ marks a conversion by molar mass, not a printed value. Like-named read-outs stand apart in the source and are kept apart here.

Tests used:
[1] = system: Trichomonas vaginalis; assay: In vitro activity against Trichomonas vaginalis; assay type: cell-based; settings: Trichomonas vaginalis; for MIC: read-out: Minimal 99% Suppression Level; for MBC: read-out: Minimal Cidal Level
Excerpt: In Table VI below is set forth the in vitro activity of the compounds of this invention against T. vaginalis. The test procedure used was substantially as described by R. J. Schnitzer on pages 289-331 in Experimental Chemotherapy, Volume 1, Academic Press, New York (1963).

[2] = system: Histomonas meleagridis; assay: Prophylactic activity in turkeys against Histomonas meleagridis; assay type: in vivo; settings: turkeys inoculated orally with 500 Heterakis gallinae ova
Procedure: Gentamicin A was administered to groups of turkeys at dosage levels of 5, 10, and 15 mg. per turkey per day in aqueous solution. Two days after the initiation of the drug, the turkeys were inoculated orally with 500 Heterakis gallinae ova (the intermediate host carrier of Histomonas). A single group of turkeys received 0.035% of gentamicin A in their feed for six days. Untreated infected controls were also carried in each experiment. The test is continued for twelve days and the birds are autopsied on the thirteenth day. Infection is usually manifested principally in two areas, the cecum and the liver which are the areas examined during the autopsy.

[3] = system: Trichomonas vaginalis; assay: Stated activity against Trichomonas vaginalis
[4] = system: Entamoeba histolytica; assay: Stated activity against Entamoeba histolytica
[5] = system: Histomonas meleagridis; assay: Stated activity against Histomonas meleagridis
[6] = system: Trichomonas foetus; assay: Stated activity against Trichomonas foetus
[7] = system: Syphacia obvelata; assay: Stated anthelmintic activity against pinworms such as Syphacia obvelata
[8] = system: bacteria; settings: cited from earlier work

SMILES: CNC1C(O)COC(OC2C(N)CC(N)C(OC3OC(CO)C(O)C(O)C3N)C2O)C1O (centres unmarked) [Gentamicin A]
- MIC ([1]; 24 hours): 10 µg/mL (≈ 21.3 µM)
- MBC ([1]; 24 hours): 25 µg/mL (≈ 53.4 µM)
- MIC ([1]; 48 hours): 5 to 10 µg/mL (≈ 10.7 to 21.3 µM)
- MBC ([1]; 48 hours): 10 µg/mL (≈ 21.3 µM)
- minimum dosage level with prophylactic activity [2]: 10 mg. per bird
- antiprotozoal activity (in words) [3]: effective
- antiprotozoal activity (in words) [4]: effective
- antiprotozoal activity (in words) [5]: effective
- antiprotozoal activity (in words) [6]: effective
- anthelmintic activity (in words) [7]: effective
- antibiotic activity (in words) [8]: rather weak antibiotic activity
